# Source: US12558428B2, “Heterobifunctional compounds and their use in treating disease” (Halda Therapeutics OpCo, Inc., priority 2024, dated 2026)
# Test system: T-Rex 293 cells having increased expression of estrogen receptor alpha protein
# Test: Cellular growth inhibition assay, T-Rex 293 cells, (+) doxycycline
# Assay type: cell-based
# Details: T-REx-293, 72 h, Table 7-A; T-Rex 293 cells with doxycycline (increased ERα expression); 72 hours; CellTiter-Glo; read-out: (+) Dox GI50
# Method in brief: (§1)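 Cells of an inducible ERα-expressing T-Rex 293 clone are seeded in charcoal-dextran FBS medium with or without 3 ng/mL doxycycline, then treated after 24 h with compound dilutions (0.5% DMSO) for 72 h. Growth inhibition is measured by CellTiter-Glo luminescence and expressed as GI50.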
row,Structure (SMILES),GI50
1,CC1=C(c2c(F)cc(F)cc2F)[C@@H](c2ccc(C3CCN(CC4(O)CCN(c5ccc(C6=N[C@@H](C)c7nnc(C)n7-c7sc(C)c(C)c76)cc5)CC4)CC3)cc2)Oc2ccc(O)cc21 [V-32],< 0.05 µM
2,CC1=C(c2c(F)cc(F)cc2F)[C@H](c2ccc(OCC(=O)N3CCCC4(CCN(c5ccc(C6=N[C@@H](Cc7ncco7)c7nnc(C)n7-c7sc(C)c(C)c76)cc5)C4)C3)cc2)Oc2ccc(O)cc21 (stereo partly drawn) [V-33],< 0.05 µM
3,CC1=C(c2c(F)cc(F)cc2F)[C@@H](c2ccc(OCC(=O)N3CCCC4(CCN(c5ccc(C6=N[C@@H](Cc7ncco7)c7nnc(C)n7-c7sc(C)c(C)c76)cc5)C4)C3)cc2)Oc2ccc(O)cc21 (stereo partly drawn) [V-34],0.05 to 0.5 µM
4,CC1=C(c2c(F)cc(F)cc2F)[C@H](c2ccc(N3CC(CN4CCN(CC5CN(c6ccc(C7=N[C@@H](C)c8nnc(C)n8-c8sc(C)c(C)c87)cc6)C5)CC4)C3)cc2)Oc2ccc(O)cc21 [V-35],< 0.05 µM
5,CC1=C(c2c(F)cc(F)cc2F)[C@@H](c2ccc(N3CC(CN4CCN(CC5CN(c6ccc(C7=N[C@@H](C)c8nnc(C)n8-c8sc(C)c(C)c87)cc6)C5)CC4)C3)cc2)Oc2ccc(O)cc21 [V-36],< 0.05 µM

# Same assay, conditions: T-REx-293, 72 h, Table 7-B; T-Rex 293 cells with doxycycline (increased ERα expression); 72 hours; CellTiter-Glo; read-out: (+) Dox GI50
row,Structure (SMILES),GI50
1,Cc1cc(N2CCC(O)(CN3CCN(c4cc(F)c([C@@H]5c6ccc(O)cc6CC[C@@H]5c5ccccc5)cc4F)CC3)CC2)ccc1Oc1ccc(C(C)(C)O)cc1-c1cn(C)c(=O)c2[nH]ccc12 [V-37],< 0.05 µM
2,Cc1cc(N2CCC(O)(CN3CCN(c4cc(F)c([C@H]5c6ccc(O)cc6CC[C@H]5c5ccccc5)cc4F)CC3)CC2)ccc1Oc1ccc(C(C)(C)O)cc1-c1cn(C)c(=O)c2[nH]ccc12 [V-38],0.05 to 0.5 µM
3,Cc1cc(N2CCC(O)(CN3CCN(c4ccc([C@@H]5c6ccc(O)cc6CC[C@@H]5c5ccc(F)cc5F)cc4)CC3)CC2)ccc1Oc1ccc(C(C)(C)O)cc1-c1cn(C)c(=O)c2[nH]ccc12 [V-39],0.05 to 0.5 µM
4,Cc1cc(N2CCC(O)(CN3CCN(c4ccc([C@H]5c6ccc(O)cc6CC[C@H]5c5ccc(F)cc5F)cc4)CC3)CC2)ccc1Oc1ccc(C(C)(C)O)cc1-c1cn(C)c(=O)c2[nH]ccc12 [V-40],< 0.05 µM

# Test system: MCF7 cells (ATCC #HTB-22)
# Test: Cellular growth inhibition assay, MCF7 cells purchased from ATCC
# Assay type: cell-based
# Details: Homo sapiens, MCF7, 144 h, Table 8-A; MCF7 cells purchased from ATCC; six days; CellTiter-Glo; read-out: GI50
# Method in brief: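 GI50 values come from a four-parameter fit of CellTiter-Glo 2.0 luminescence after six days of compound exposure at 37° C. Seeding density depended on the source: 225 cells/well for ECACC MCF7, 1,500 for ATCC. Medium was RPMI 1640 with 10% FBS and 0.2 U/ml insulin.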
row,Structure (SMILES),GI50
1,CC1=C(c2c(F)cc(F)cc2F)[C@@H](c2ccc(C3CCN(CC4(O)CCN(c5ccc(C6=N[C@@H](C)c7nnc(C)n7-c7sc(C)c(C)c76)cc5)CC4)CC3)cc2)Oc2ccc(O)cc21 [V-32],0.05 to 0.5 µM
2,CC1=C(c2c(F)cc(F)cc2F)[C@H](c2ccc(OCC(=O)N3CCCC4(CCN(c5ccc(C6=N[C@@H](Cc7ncco7)c7nnc(C)n7-c7sc(C)c(C)c76)cc5)C4)C3)cc2)Oc2ccc(O)cc21 (stereo partly drawn) [V-33],0.05 to 0.5 µM
3,CC1=C(c2c(F)cc(F)cc2F)[C@@H](c2ccc(OCC(=O)N3CCCC4(CCN(c5ccc(C6=N[C@@H](Cc7ncco7)c7nnc(C)n7-c7sc(C)c(C)c76)cc5)C4)C3)cc2)Oc2ccc(O)cc21 (stereo partly drawn) [V-34],0.05 to 0.5 µM
4,CC1=C(c2c(F)cc(F)cc2F)[C@H](c2ccc(N3CC(CN4CCN(CC5CN(c6ccc(C7=N[C@@H](C)c8nnc(C)n8-c8sc(C)c(C)c87)cc6)C5)CC4)C3)cc2)Oc2ccc(O)cc21 [V-35],< 0.05 µM
5,CC1=C(c2c(F)cc(F)cc2F)[C@@H](c2ccc(N3CC(CN4CCN(CC5CN(c6ccc(C7=N[C@@H](C)c8nnc(C)n8-c8sc(C)c(C)c87)cc6)C5)CC4)C3)cc2)Oc2ccc(O)cc21 [V-36],0.05 to 0.5 µM
6,Cc1cc(N2CCC(O)(CN3CCN(c4cc(F)c([C@@H]5c6ccc(O)cc6CC[C@@H]5c5ccccc5)cc4F)CC3)CC2)ccc1Oc1ccc(C(C)(C)O)cc1-c1cn(C)c(=O)c2[nH]ccc12 [V-37],< 0.05 µM
7,Cc1cc(N2CCC(O)(CN3CCN(c4cc(F)c([C@H]5c6ccc(O)cc6CC[C@H]5c5ccccc5)cc4F)CC3)CC2)ccc1Oc1ccc(C(C)(C)O)cc1-c1cn(C)c(=O)c2[nH]ccc12 [V-38],0.05 to 0.5 µM
8,Cc1cc(N2CCC(O)(CN3CCN(c4ccc([C@@H]5c6ccc(O)cc6CC[C@@H]5c5ccc(F)cc5F)cc4)CC3)CC2)ccc1Oc1ccc(C(C)(C)O)cc1-c1cn(C)c(=O)c2[nH]ccc12 [V-39],0.05 to 0.5 µM
9,Cc1cc(N2CCC(O)(CN3CCN(c4ccc([C@H]5c6ccc(O)cc6CC[C@H]5c5ccc(F)cc5F)cc4)CC3)CC2)ccc1Oc1ccc(C(C)(C)O)cc1-c1cn(C)c(=O)c2[nH]ccc12 [V-40],< 0.05 µM

# Test system: T-Rex 293 cells lacking increased expression of estrogen receptor alpha protein
# Test: Cellular growth inhibition assay, T-Rex 293 cells, (−) doxycycline
# Assay type: cell-based
# Details: T-REx-293, 72 h, Table 7-A; T-Rex 293 cells without doxycycline (lacking increased ERα expression); 72 hours; CellTiter-Glo; read-out: (−) Dox GI50
# Method in brief: as §1
row,Structure (SMILES),GI50
1,CC1=C(c2c(F)cc(F)cc2F)[C@@H](c2ccc(C3CCN(CC4(O)CCN(c5ccc(C6=N[C@@H](C)c7nnc(C)n7-c7sc(C)c(C)c76)cc5)CC4)CC3)cc2)Oc2ccc(O)cc21 [V-32],0.5 to 2.5 µM
2,CC1=C(c2c(F)cc(F)cc2F)[C@H](c2ccc(OCC(=O)N3CCCC4(CCN(c5ccc(C6=N[C@@H](Cc7ncco7)c7nnc(C)n7-c7sc(C)c(C)c76)cc5)C4)C3)cc2)Oc2ccc(O)cc21 (stereo partly drawn) [V-33],0.05 to 0.5 µM
3,CC1=C(c2c(F)cc(F)cc2F)[C@@H](c2ccc(OCC(=O)N3CCCC4(CCN(c5ccc(C6=N[C@@H](Cc7ncco7)c7nnc(C)n7-c7sc(C)c(C)c76)cc5)C4)C3)cc2)Oc2ccc(O)cc21 (stereo partly drawn) [V-34],0.05 to 0.5 µM
4,CC1=C(c2c(F)cc(F)cc2F)[C@H](c2ccc(N3CC(CN4CCN(CC5CN(c6ccc(C7=N[C@@H](C)c8nnc(C)n8-c8sc(C)c(C)c87)cc6)C5)CC4)C3)cc2)Oc2ccc(O)cc21 [V-35],0.05 to 0.5 µM
5,CC1=C(c2c(F)cc(F)cc2F)[C@@H](c2ccc(N3CC(CN4CCN(CC5CN(c6ccc(C7=N[C@@H](C)c8nnc(C)n8-c8sc(C)c(C)c87)cc6)C5)CC4)C3)cc2)Oc2ccc(O)cc21 [V-36],0.5 to 2.5 µM

# Same assay, conditions: T-REx-293, 72 h, Table 7-B; T-Rex 293 cells without doxycycline (lacking increased ERα expression); 72 hours; CellTiter-Glo; read-out: (−) Dox GI50
row,Structure (SMILES),GI50
1,Cc1cc(N2CCC(O)(CN3CCN(c4cc(F)c([C@@H]5c6ccc(O)cc6CC[C@@H]5c5ccccc5)cc4F)CC3)CC2)ccc1Oc1ccc(C(C)(C)O)cc1-c1cn(C)c(=O)c2[nH]ccc12 [V-37],0.5 to 2.5 µM
2,Cc1cc(N2CCC(O)(CN3CCN(c4cc(F)c([C@H]5c6ccc(O)cc6CC[C@H]5c5ccccc5)cc4F)CC3)CC2)ccc1Oc1ccc(C(C)(C)O)cc1-c1cn(C)c(=O)c2[nH]ccc12 [V-38],0.05 to 0.5 µM
3,Cc1cc(N2CCC(O)(CN3CCN(c4ccc([C@@H]5c6ccc(O)cc6CC[C@@H]5c5ccc(F)cc5F)cc4)CC3)CC2)ccc1Oc1ccc(C(C)(C)O)cc1-c1cn(C)c(=O)c2[nH]ccc12 [V-39],0.05 to 0.5 µM
4,Cc1cc(N2CCC(O)(CN3CCN(c4ccc([C@H]5c6ccc(O)cc6CC[C@H]5c5ccc(F)cc5F)cc4)CC3)CC2)ccc1Oc1ccc(C(C)(C)O)cc1-c1cn(C)c(=O)c2[nH]ccc12 [V-40],0.5 to 2.5 µM
